These results are taken from paper PMC5453931, “Cathelicidin-trypsin inhibitor loop conjugate represents a promising antibiotic candidate with protease stability” (Scientific Reports, 2017).

In data set [1] the test system is E. coli ATCC25922. The experiment in a line: Salt stability of antimicrobial activity. The format is cell-based. Conditions: 1 × MIC, Fig. 3A. As to the method: To determine the effect of salt on the antimicrobial activity of the parental and hybrid peptides, the bacteria colonies survived 1 × MIC of peptide in the presence of salt were counted. Briefly, E. coli ATCC25922 were diluted into decent concentration and mixed with each kind of peptide solution of 1 × MIC supplemented with NaCl (0, 50, 100, 150, 200 and 400 mM), respectively. […] The salt stability of the peptides was assessed by the number of colonies.

Data set [2] deals with Vibrio Parahaemolyticus. In words: MIC, two-fold broth microdilution. In kind it is cell-based. Particulars: Aquatic pathogenic bacteria; two-fold broth microdilution, 37 °C, 18 h; mean of three independent experiments in duplicates. A digest of the protocol:
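Peptides were titrated in two-fold steps against exponential-phase inocula (10^6 CFU/mL prior to 1:1 addition) in MH broth. After 18 h incubation at 37 °C with slow shaking, optical density at 595 nm was measured; averaged MICs come from three separate experiments.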

The conditions of data set [3]: 20% fresh human serum, 37 °C, colonies surviving 1 × MIC, Fig. 3B.
In data set [4] the test system is Raw264.7 cells. The experiment in a line: LPS-induced iNOS, cytokine and chemokine transcription (q-PCR). In kind it is cell-based, Murine. Particulars: LPS 100 ng/mL, 6 h, q-PCR normalized to GAPDH; Fig. 6. Here is the method:
Murine macrophage Raw264.7 cells (3 × 10^5/well) were treated with series concentrations of hybrid peptides and LPS (100 ng/mL) for 6 h. Total RNA was isolated using RNAiso Plus kit (Takara) and synthesized into cDNA with PrimeScript Reverse Transcriptase (Takara). The cDNA was assessed by q-PCR using SYBR green master mix kit (Takara) on a Realplex Mastercycler (Eppendorf, Germany). Gene expression was calculated after being normalized to those of GAPDH levels by Δ Δ Ct method27. The accuracy of the amplification reactions was achieved by melt curve analysis.

≈ marks a conversion by molar mass, not a printed value. Where a SMILES comes first, the peptide text is derived from it. Bridges are numbered along the chain shown (N, C = ends).

With `CC[C@H](C)[C@@H]1NC(=O)[C@H](CO)NC(=O)[C@H](CCCCN)NC(=O)[C@H]([C@@H](C)O)NC(=O)[C@H](Cc2c[nH]c3ccccc23)NC(=O)[C@@H](N)CSSC[C@@H](C(=O)N[C@@H](CCCCN)C(=O)N[C@@H](Cc2ccccc2)C(=O)N[C@@H](Cc2ccccc2)C(=O)N[C@@H](CCCCN)C(=O)N[C@@H](CCCNC(=N)N)C(=O)N[C@@H](Cc2ccccc2)C(=O)N[C@@H](Cc2ccccc2)C(=O)N[C@@H](CCCCN)C(=O)N[C@@H](CO)C(=O)N[C@@H](Cc2ccccc2)C(=O)N[C@@H](CCCNC(=N)N)C(=O)N[C@@H](CCCNC(=N)N)C(=O)N[C@@H](C)C(=O)N[C@@H](Cc2ccccc2)C(=O)N[C@@H](CCCCN)C(=O)N[C@@H](CCCCN)C(=O)N[C@@H](Cc2ccccc2)C(N)=O)NC(=O)[C@@H]2CCCN2C(=O)[C@H](CCCCN)NC(=O)[C@@H]2CCCN2C(=O)[C@@H]2CCCN2C1=O` [TIH3F] (H-CWTKSIPPKPCKFFKRFFKSFRRAFKKF-NH2; disulfide 1-11), the “antimicrobial activity (kill %) in presence of salt” value in data set [1] (50 mM NaCl, colony counting) is “not affected”. For the same compound, in data set [1] (NaCl increased from 100 mM up to 200 mM), the “kill (%) in presence of salt” value was “declined by half”. The “killing effect in presence of salt” value in data set [1] (NaCl raised from 100 mM to 400 mM) is reported as “decreased by half”. In data set [2], the “MIC Vibrio Parahaemolyticus” value came to 4.69 µg/mL (≈ 1.32 µM). Further, the “kill (%) after incubation with human serum” value in data set [3] (6 h) amounted to 75%. For the same compound, the “kill (%) / antimicrobial activity kept after incubation with human serum” value in data set [3] (36 h) was found to be 65%. In addition, the “LPS-induced mRNA of iNOS, TNF-α, IL-1β, IL-6, MCP-1” value in data set [4] was “strongest inhibitory effect”.
